Results on one molecule are retold here after patent EP0254534A2, “Erythromycin derivatives and compositions and use for inhibiting virus replication and disease” (Robinson, William S., priority 1986, dated 1988).

SMILES strings stand for the structures. Several values for one entry are separate records, joined by “and”; a condition that tells them apart may be missing. Identical values can stand only once. Like-named read-outs stand apart in the source and are kept apart here.

In one experiment the test system is HTLV III. Nature of the experiment: Inhibition of growth of HTLV III in infected T-cell line (VB) in tissue culture; culture medium assayed by reverse transcriptase and P-24 ELISA. Particulars: HTLV III infected VB T-cells; for inhibition at 1 µg/mL: EMO 1 µg/ml; for inhibition at 5 µg/mL: EMO 5 µg/ml; for inhibition at 10 µg/mL: EMO 10 µg/ml; for inhibition at 20 µg/mL: EMO 20 µg/ml. Format: cell-based. The protocol: A sample of 9-0-methyloximinyl erythromycin A (EMO) was tested for capacity to inhibit growth of HTLV III in tissue culture. A T-cell line (VB) was infected with HTLV III and infected cells were incubated with 0, 1, 5, 10 and 20 µgm EMO per ml of tissue culture medium. Culture medium was recovered after 0, 1, 2, 3, and 4 days of incubation and assayed for HTLV III production by reverse transcriptase and viral antigen (P-24) testing by ELISA.

A further experiment concerns DHBV. Nature of the experiment: In vivo replication of DHBV in chronically infected Pekin ducks; serum viral DNA by slot blot hybridization. Here is the method:
A sample of 9-0-methyloximinyl erythromycin A (EMO) in solution at a concentration of 100 mg/ml in dimethyl sulfoxide (DMSO) was administered subcutaneously at a dose of 15 mg/kg/day for 14 days to a group of 10-week old Pekin ducks chronically infected with DHBV (experimentally infected as described by Marion et al., "Liver Disease Associated with Duck Hepatitis B Virus Infection of Domestic Ducks", Proc. Natl. Acad. Sci. USA (1984) 81:898). Another group of 10-week old Pekin ducks were used as a control and treated with the same dose of DMSO alone. In vivo replication of virus was assessed by measuring levels of DHBV virus in the serum of infected animals before, during, and after treatment. Virus levels in serum were determined by quantitating the DNA of the virus by slot blot hybridization. Ten µl of each serum was made up to 0.1 M with NaOH to disrupt virus and denature the viral DNA. The samples were spotted on nylon membrane which binds single stranded DNA. The filter-bound viral DNA was detected by hybridization with a DHBV [³²P]- DNA probe followed by autoradiography. The quantity of viral DNA in each serum sample, expressed as picograms of viral DNA/ml serum, was determined by comparing densitometer tracings of the exposed area of film overlying each serum spot on the nylon membrane with a standard curve derived from densitometer tracings for known amounts of DHBV DNA similarly spotted on the same nylon membrane.
EMO was administered beginning on day 8 for 14 days at the rate of 15 mg/kg/day. The low level was retained until day 22 (when EMO treatment was discontinued) thereafter the viral level began to climb and was followed to day 32, where the level reached about 650 picograms DHPV DNA/ml serum.
Table 2 summarizes the results of treatment of four animals with erythromycin A 9-0-methyloxime (EMO) in DMSO and four animals with DMSO alone as determined on day 22 after termination of administration of the drug after 14 days. Virus was similarly found to be suppressed by EMO treatment in each animal and not by DMSO.

[1] abbreviates: culture medium, read-out: % Reduction Reverse Transcriptase.
[2] abbreviates: viral antigen by ELISA, read-out: % Reduction P-24.

With `CCC1OC(=O)C(C)C(OC2CC(C)(OC)C(O)C(C)O2)C(C)C(OC2OC(C)CC(N(C)C)C2O)C(C)(O)CC(C)C(=NOC)C(C)C(O)C1(C)O` (centres unmarked) [EMO, 9-0-methyloximinyl erythromycin A], in the experiment with HTLV III (setting [1]), the inhibition at 1 µg/mL was determined as 10%, the inhibition at 5 µg/mL was found to be 50%, the inhibition at 10 µg/mL stood at 73% and the inhibition at 20 µg/mL stood at 82%. In the experiment on HTLV III (setting [2]), the inhibition at 1 µg/mL turned out to be 8%, the inhibition at 5 µg/mL is 45%, the inhibition at 10 µg/mL was determined as 69% and the inhibition at 20 µg/mL came to 86%. Further, in the experiment with DHBV (15 mg/kgm/day in DMSO, subcutaneous, 14 days, individual ducks (Animal No. 1-4), determined on day 22), the “% Reduction in DHBV DNA In Serum After 14 Days Treatment” value was 100% (2×) and 96% and 94%. Moreover, the “picograms of DHPV DNA/ml serum” value with DHBV (by day 12 (EMO 15 mg/kg/day from day 8 for 14 days; 900 at day 0, maximum 1500 by day 8), low level retained until day 22) is recorded as “below the level of detection”. Also, the “picograms of DHPV DNA/ml serum” value in the experiment on DHBV (day 32, 10 days after EMO treatment was discontinued (day 22)) is on record as “about 650 picograms DHPV DNA/ml serum”.
